Data taken from US20240400553A1, “AMINE BASED MATRIPTASE 2 INHIBITORS AND USES THEREOF” (Disc Medicine, Inc., priority 2023, published 2024).

Target: T1, Human Recombinant Matriptase 2 (Homo sapiens, UniProt Q8IU80)
T1 construct: made in house
T1 sequence (Q8IU80 1-811): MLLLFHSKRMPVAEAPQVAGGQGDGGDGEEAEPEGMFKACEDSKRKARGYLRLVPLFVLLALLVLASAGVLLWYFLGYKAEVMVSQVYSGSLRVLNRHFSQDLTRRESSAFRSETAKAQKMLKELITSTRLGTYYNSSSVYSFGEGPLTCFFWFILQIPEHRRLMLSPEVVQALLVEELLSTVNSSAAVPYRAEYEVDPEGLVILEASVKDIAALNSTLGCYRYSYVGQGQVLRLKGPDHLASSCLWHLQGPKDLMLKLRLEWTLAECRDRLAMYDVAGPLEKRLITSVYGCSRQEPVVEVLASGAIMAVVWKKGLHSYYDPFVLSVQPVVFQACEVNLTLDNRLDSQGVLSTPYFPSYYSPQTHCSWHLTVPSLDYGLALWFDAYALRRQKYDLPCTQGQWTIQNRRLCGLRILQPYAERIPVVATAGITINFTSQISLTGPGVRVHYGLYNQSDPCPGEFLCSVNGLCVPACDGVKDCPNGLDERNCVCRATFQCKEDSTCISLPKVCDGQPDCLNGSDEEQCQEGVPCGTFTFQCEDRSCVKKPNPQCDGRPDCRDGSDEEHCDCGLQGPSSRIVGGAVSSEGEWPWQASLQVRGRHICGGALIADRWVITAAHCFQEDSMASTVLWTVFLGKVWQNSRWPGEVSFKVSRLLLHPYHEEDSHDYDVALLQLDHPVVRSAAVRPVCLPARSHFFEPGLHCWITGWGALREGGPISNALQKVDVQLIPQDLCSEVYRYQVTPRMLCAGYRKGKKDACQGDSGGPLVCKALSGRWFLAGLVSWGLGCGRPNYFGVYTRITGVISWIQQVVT
Experiment: Matriptase 2 inhibition, fluorescence based assay (Method I)
Assay type: biochemical
Conditions: Table A; Ki of Matriptase-2, class symbols; read-out: Mat-2 Ki
Procedure, shortened: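 In-house recombinant enzyme (3.5 nM), preincubated 30 min with compound, then Boc-Gln-Ala-Arg-AMC substrate (62 μM) in 50 mM Tris pH 7.5, 150 mM NaCl, 0.01% gelatin, 1% DMSO, 25 °C. Fluorescence (Ex 360/Em 480 nm) read 60 min after substrate; IC50 from variable-slope sigmoidal fit of % inhibition.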

Work on `NCc1ccc2cc(-c3nnn[nH]3)n(Cc3cc(NS(=O)(=O)CC[C@@H]4CCCN4)cc4ccccc34)c2c1` [Compound 399, (S)—N-(4-((6-(aminomethyl)-2-(1H-tetrazol-5-yl)-1H-indol-1-yl)methyl)naphthalen-2-yl)-2-(pyrrolidin-2-yl) ethane-1-sulfonamide] yielded a Ki of 100 to 500 nM.

Same assay, conditions: Table A; Ki of Matriptase-2 given as class symbols; read-out: Mat-2 Ki

`C[C@@H](c1ccccc1)S(=O)(=O)Nc1cc(Cn2c(C(=O)OCC3CCN(C)CC3)cc3ccc(CN)cc32)c2ccccc2c1` [Compound 387, (1-methylpiperidin-4-yl)-methyl 6-(aminomethyl)-1-({3-[(1S)-1-phenyl-ethanesulfonamido]-naphthalen-1-yl}methyl)-1H-indole-2-carboxylate] and `COCCN1CCC(CS(=O)(=O)Nc2cc(Cn3c(C(=O)O)cc4ccc(CN)cc43)c3ccccc3c2)CC1` [Compound 390, 6-(aminomethyl)-1-[(3-{[1-(2-methoxyethyl)-piperidin-4-yl]methane-sulfonamido}naphthalen-1-yl)methyl]-1H-indole-2-carboxylic acid] fall in the same range of Ki: 100 to 500 nM for the first, 100 to 500 nM for the second.

Compared with `COCCN1CCN(CCS(=O)(=O)Nc2cc(Cn3c(C(=O)O)cc4ccc(CN)cc43)c3ccccc3c2)CC1` [Compound 388, 6-(aminomethyl)-1-[(3-{2-[4-(2-methoxyethyl)-piperazin-1-yl]ethanesul-fonamido}naphthalen-1-yl)methyl]-1H-indole-2-carboxylic acid], `COCCN1CCN(C(=O)Nc2cc(Cn3c(C(=O)O)cc4ccc(CN)cc43)c3ccccc3c2)CC1` [Compound 394, 6-(aminomethyl)-1-((3-(4-(2-methoxyethyl)piperazine-1-carboxamido)naphthalen-1-yl)methyl)-1H-indole-2-carboxylic acid] is higher in Ki: 100 to 500 nM for the first, 500 to 3000 nM for the second. The first binds more tightly here.

First: NCc1ccc2cc(C(=O)O)n(Cc3cc(NS(=O)(=O)CC[C@@H]4CCCN4)cc4ccccc34)c2c1 [Compound 389, 6-(aminomethyl)-1-[(3-{2-[(2S)-pyrrolidin-2-yl]ethanesulfonamido}-naphthalen-1-yl)methyl]-1H-indole-2-carboxylic acid]
Second: NCc1ccc2cc(C(=O)O)n(Cc3cc(NS(=O)(=O)CC4CCC(C(F)(F)F)CC4)cc4ccccc34)c2c1 (stereo not shown) [Compound 392]
The Ki of the first is lower: 100 to 500 nM for the first, 500 to 3000 nM for the second.

First: NCc1ccc2cc(C(=O)O)n(Cc3cc(NS(=O)(=O)N4CCC(C(F)(F)F)CC4)cc4ccccc34)c2c1 [Compound 393, 6-(aminomethyl)-1-{[3-({[4-(trifluoromethyl)-piperidin-1-yl]sulfonyl}-amino)naphthalen-1-yl]-methyl}-1H-indole-2-carboxylic acid]
Second: CS(=O)(=O)N1CCC(CNC(=O)Nc2cc(Cn3c(C(=O)O)cc4ccc(CN)cc43)c3ccccc3c2)CC1 [Compound 397, 6-(aminomethyl)-1-{[3-({[(1-methanesulfonyl-piperidin-4-yl)methyl]-carbamoyl}amino)naph-thalen-1-yl]methyl}-1H-indole-2-carboxylic acid]
The Ki of the first is higher: 500 to 3000 nM for the first, 100 to 500 nM for the second.

With `CC(C)(C)S(=O)(=O)N1CCC(CNC(=O)Nc2cc(Cn3c(C(=O)O)cc4ccc(CN)cc43)c3ccccc3c2)CC1` [Compound 396, 6-(aminomethyl)-1-({3-[({[1-(2-methylpropane-2-sulfonyl)piperidin-4-yl]methyl}carbamoyl)-amino]naphthalen-1-yl}-methyl)-1H-indole-2-carboxylic acid] the Ki was 100 to 500 nM.
